Measurements published in patent US6759399B1, “Use of antimineralocorticoid compounds against narcotic withdrawal syndrome” (Aventis Pharma S.A., priority 1995, dated 2004).
Values joined by “and” are separate entries in the source; they are usually repeats but may differ in a detail not shown here. Equal entries are not always repeated.

Columns and labels:
[1] = system: self-administration of cocaine in rats; experiment: Dependence induced by cocaine: self-administration of cocaine in trained rats; type: in vivo; conditions: 1 hour before session
Description: The anti-mineralocorticoid product AM2 was tested on 5 rats which were trained in the self-administration of cocaine during daily periods of one hour.
These rats were pre-treated 1 hour before the start of the self-administration sessions.
The product AM2 dissolved in a saline solution was administered by intra-peritoneal route. The doses range from 10 to 100 mg/kg.

[2] = system: morphinic withdrawal syndrome induced by naloxone in mice; experiment: Withdrawal syndrome induced by naloxone in mice treated with morphine (jumping test); conditions: for % protection: relative to the morphine group
[3] = antimineralocorticoid alone 4 × 10 mg/kg p.o., no morphine, naloxone 100 mg/kg i.p.
[4] = antimineralocorticoid alone 4 × 20 mg/kg p.o., no morphine, naloxone 100 mg/kg i.p.
[5] = morphine 799 mg/kg s.c. + antimineralocorticoid 4 × 10 mg/kg p.o., naloxone 100 mg/kg i.p.
[6] = morphine 799 mg/kg s.c. + antimineralocorticoid 4 × 10 mg/kg p.o.
[7] = morphine 799 mg/kg s.c. + antimineralocorticoid 4 × 20 mg/kg p.o., naloxone 100 mg/kg i.p.
[8] = morphine 799 mg/kg s.c. + antimineralocorticoid 4 × 20 mg/kg p.o.

Row | Compound | effect on the self-administration of cocaine ([1]; pre-treatment with 10 or 20 mg/kg intra-peritoneal) | effect on the self-administration of cocaine ([1]; pre-treatment with 50 or 75 mg/kg intra-peritoneal) | Number of jumps/10 minutes (m ± sem) [2, 3] | Number of jumps/10 minutes (m ± sem) [2, 4] | Number of jumps/10 minutes (m ± sem) ([2]; antimineralocorticoid alone 4 × 50 mg/kg p.o., no morphine, naloxone 100 mg/kg i.p.) | Number of jumps/10 minutes (m ± sem) [2, 5] | % protection [2, 6] | Number of jumps/10 minutes (m ± sem) [2, 7] | % protection [2, 8] | Number of jumps/10 minutes (m ± sem) ([2]; morphine 799 mg/kg s.c. + antimineralocorticoid 4 × 50 mg/kg p.o., naloxone 100 mg/kg i.p.) | % protection ([2]; morphine 799 mg/kg s.c. + antimineralocorticoid 4 × 50 mg/kg p.o.) | Number of jumps/10 minutes (m ± sem) ([2]; morphine alone 799 mg/kg s.c. (cumulative over 4 days), naloxone 100 mg/kg i.p. on day 4)
1 | CCC[C@@H]1CC2=CC(=O)CC[C@]2(C)[C@H]2CC[C@@]3(C)[C@@H](CC[C@@]3(O)CCC(=O)[O-])[C@H]12.[K+] [AM2, potassium 17β-hydroxy 3-oxo 7α-propyl-(17α)-pregn-4-ene-21-carboxylate] | little or no effect | significant reduction | 2 ± 2 jumps/10 minutes | 4 ± 4 jumps/10 minutes | 3 ± 2 jumps/10 minutes | 76 ± 16 jumps/10 minutes | −25% | 51 ± 8 jumps/10 minutes | −48% | 61 ± 8 jumps/10 minutes | −40% | 
2 | CN1CC[C@]23c4c5ccc(O)c4O[C@H]2[C@@H](O)C=C[C@H]3[C@H]1C5 [Morphine, morphine] |  |  |  |  |  |  |  |  |  |  |  | 114 ± 8 jumps/10 minutes and 76 ± 15 jumps/10 minutes and 102 ± 10 jumps/10 minutes and 99 ± 13 jumps/10 minutes
3 | CC(=O)S[C@@H]1CC2=CC(=O)CC[C@]2(C)[C@H]2CC[C@@]3(C)[C@@H](CC[C@@]34CCC(=O)O4)[C@H]12 [AM1, γ-lactone of 7α-acetylthio-17β-hydroxy-3-oxo-17α-pregn-4-ene-21-carboxylic acid] |  |  | 3 ± 2 jumps/10 minutes | 11 ± 4 jumps/10 minutes |  | 51 ± 7 jumps/10 minutes | −33% | 77 ± 8 jumps/10 minutes | −32% |  |  | 
